# PubChem BioAssay (NCI)
#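 Grown in 96-well plates, cells were treated for 48 hours with each compound at five concentrations. Insufficient inhibition: endpoint recorded as highest concentration tested. Abbreviation: GI50, concentration required for 50% inhibition of growth. Definition used: TGI = concentration required for complete inhibition of growth.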
# Key:
# Assay in all cases: NCI-60 cell line screen, 48 h
# [1] = system: HL-60(TB) leukemia
# [2] = system: NCI-H226 lung
# [3] = system: CCRF-CEM leukemia
# [4] = system: NCI/ADR-RES ovarian
# [5] = system: M14 melanoma
# [6] = system: BT-549 breast
# [7] = system: LOX IMVI melanoma
# [8] = system: NCI-H522 lung
# [9] = system: SF-295 CNS
# [10] = system: HCC-2998 colon
# [11] = system: CAKI-1 renal
# [12] = system: SK-MEL-2 melanoma
# [13] = system: IGROV1 ovarian
# [14] = system: NCI-H23 lung
# [15] = system: HCT-15 colon
# [16] = system: 786-0 renal
# [17] = system: DU-145 prostate
# [18] = system: KM12 colon
# [19] = system: TK-10 renal
# [20] = system: HOP-62 NSCLC
# [21] = system: K-562 leukemia
# [22] = system: MCF7 breast
# [23] = system: UACC-62 melanoma
# [24] = system: EKVX NSCLC
# [25] = system: HS 578T breast
# [26] = system: OVCAR-5 ovarian
# [27] = system: HT29 colon
# [28] = system: UACC-257 melanoma
# [29] = system: OVCAR-8 ovarian
# [30] = system: UO-31 renal
# [31] = system: A498 renal
# [32] = system: ACHN renal
# [33] = system: SK-MEL-5 melanoma
# [34] = system: MALME-3M melanoma
# [35] = system: SN12C renal
# [36] = system: SNB-75 CNS
# [37] = system: SR leukemia
# [38] = system: COLO 205 colon
# [39] = system: U251 CNS
# [40] = system: MOLT-4 leukemia
# [41] = system: A549 NSCLC
# [42] = system: PC-3 prostate
# [43] = system: OVCAR-3 ovarian
# [44] = system: RXF 393 renal
# [45] = system: MDA-MB-435
# [46] = system: SF-268 CNS
# [47] = system: SK-OV-3 ovarian
# [48] = system: SF-539 CNS
# [49] = system: HOP-92 NSCLC
# [50] = system: MDA-MB-231 breast
# [51] = system: OVCAR-4 ovarian
# [52] = system: SW-620 colon
# [53] = system: T-47D breast
# [54] = system: NCI-H460 lung
# [55] = system: SK-MEL-28 melanoma
# [56] = system: RPMI-8226 leukemia
# [57] = system: SNB-19 CNS
# [58] = system: HCT-116 colon
smiles,measurement,setting,value
Oc1c(Cl)c(Cl)c(Cl)c(Cl)c1Cl,TGI,[1],36.9 µM
same,TGI,[2],56.9 µM
same,TGI,[3],48.3 µM
S=C1SCN(Cc2ccccc2)CN1Cc1ccccc1,GI50,[4],33.1 µM
same,TGI,[4],> 100 µM
same,GI50,[5],6.5 µM
same,TGI,[5],27.8 µM
same,GI50,[6],6.51 µM
same,TGI,[6],33.4 µM
same,GI50,[7],3 µM
same,TGI,[7],15 µM
same,GI50,[8],3.83 µM
same,TGI,[8],10 µM
same,GI50,[9],24.4 µM
same,TGI,[9],> 90 µM
same,GI50,[10],21.7 µM
same,TGI,[10],37.8 µM
same,GI50,[11],7.19 µM
same,TGI,[11],20.9 µM
same,GI50,[12],7.53 µM
same,TGI,[12],25.3 µM
same,GI50,[13],4.39 µM
same,TGI,[13],12.2 µM
same,GI50,[14],12.1 µM
same,TGI,[14],42.9 µM
same,GI50,[15],4.13 µM
same,TGI,[15],17.1 µM
same,GI50,[16],7.63 µM
same,TGI,[16],23.1 µM
same,GI50,[17],2.69 µM
same,TGI,[17],9.18 µM
same,GI50,[18],2.1 µM
same,TGI,[18],6.84 µM
same,GI50,[19],3.68 µM
same,TGI,[19],12.6 µM
same,GI50,[20],55.6 µM
same,TGI,[20],> 100 µM
same,GI50,[21],1.15 µM
same,TGI,[21],9 µM
same,GI50,[22],2.19 µM
same,TGI,[22],15.1 µM
same,GI50,[23],5.05 µM
same,TGI,[23],16.9 µM
same,GI50,[24],21.2 µM
same,TGI,[24],> 57.8 µM
same,GI50,[25],3.02 µM
same,TGI,[25],25.6 µM
same,GI50,[26],25.7 µM
same,TGI,[26],> 60.5 µM
same,GI50,[27],3.89 µM
same,TGI,[27],15.1 µM
same,GI50,[28],16 µM
same,TGI,[28],33.2 µM
same,GI50,[29],21.6 µM
same,TGI,[29],90 µM
same,GI50,[1],1.17 µM
same,TGI,[1],3.83 µM
same,GI50,[30],5.43 µM
same,TGI,[30],19 µM
same,GI50,[31],15.5 µM
same,TGI,[31],43.6 µM
same,GI50,[32],14.8 µM
same,TGI,[32],28.2 µM
same,GI50,[2],> 32.6 µM
same,TGI,[2],> 50.8 µM
same,GI50,[33],13.6 µM
same,TGI,[33],28.1 µM
same,GI50,[34],8.75 µM
same,TGI,[34],26.7 µM
same,GI50,[35],5.01 µM
same,TGI,[35],18.5 µM
same,GI50,[36],15.4 µM
same,TGI,[36],> 48.1 µM
same,GI50,[37],0.303 µM
same,TGI,[37],3.02 µM
same,GI50,[38],3.21 µM
same,TGI,[38],11.6 µM
same,GI50,[39],5.61 µM
same,TGI,[39],16.4 µM
same,GI50,[40],1.44 µM
same,TGI,[40],5.14 µM
same,GI50,[41],15.4 µM
same,TGI,[41],37.6 µM
same,GI50,[42],3.36 µM
same,TGI,[42],15.6 µM
same,GI50,[3],1.15 µM
same,TGI,[3],3.56 µM
same,GI50,[43],2.49 µM
same,TGI,[43],9.09 µM
same,GI50,[44],1.55 µM
same,TGI,[44],6.32 µM
same,GI50,[45],2.35 µM
same,TGI,[45],7.16 µM
same,GI50,[46],9.55 µM
same,TGI,[46],> 37.6 µM
same,GI50,[47],98.7 µM
same,TGI,[47],> 100 µM
same,GI50,[48],17.2 µM
same,TGI,[48],> 61.3 µM
same,GI50,[49],2.37 µM
same,TGI,[49],13.8 µM
same,GI50,[50],3.04 µM
same,TGI,[50],10.1 µM
same,GI50,[51],9.43 µM
same,TGI,[51],27.6 µM
same,GI50,[52],3.02 µM
same,TGI,[52],11.8 µM
same,GI50,[53],3.51 µM
same,TGI,[53],21.1 µM
same,GI50,[54],31 µM
same,TGI,[54],> 100 µM
same,GI50,[55],5.27 µM
same,TGI,[55],17.9 µM
same,GI50,[56],0.119 µM
same,TGI,[56],0.415 µM
same,GI50,[57],> 54.7 µM
same,TGI,[57],> 100 µM
same,GI50,[58],3.05 µM
same,TGI,[58],13 µM
